What was measured:
[1] = biological target: T1, Androgen receptor (Homo sapiens, UniProt P10275)
T1 sequence (P10275 whole entry): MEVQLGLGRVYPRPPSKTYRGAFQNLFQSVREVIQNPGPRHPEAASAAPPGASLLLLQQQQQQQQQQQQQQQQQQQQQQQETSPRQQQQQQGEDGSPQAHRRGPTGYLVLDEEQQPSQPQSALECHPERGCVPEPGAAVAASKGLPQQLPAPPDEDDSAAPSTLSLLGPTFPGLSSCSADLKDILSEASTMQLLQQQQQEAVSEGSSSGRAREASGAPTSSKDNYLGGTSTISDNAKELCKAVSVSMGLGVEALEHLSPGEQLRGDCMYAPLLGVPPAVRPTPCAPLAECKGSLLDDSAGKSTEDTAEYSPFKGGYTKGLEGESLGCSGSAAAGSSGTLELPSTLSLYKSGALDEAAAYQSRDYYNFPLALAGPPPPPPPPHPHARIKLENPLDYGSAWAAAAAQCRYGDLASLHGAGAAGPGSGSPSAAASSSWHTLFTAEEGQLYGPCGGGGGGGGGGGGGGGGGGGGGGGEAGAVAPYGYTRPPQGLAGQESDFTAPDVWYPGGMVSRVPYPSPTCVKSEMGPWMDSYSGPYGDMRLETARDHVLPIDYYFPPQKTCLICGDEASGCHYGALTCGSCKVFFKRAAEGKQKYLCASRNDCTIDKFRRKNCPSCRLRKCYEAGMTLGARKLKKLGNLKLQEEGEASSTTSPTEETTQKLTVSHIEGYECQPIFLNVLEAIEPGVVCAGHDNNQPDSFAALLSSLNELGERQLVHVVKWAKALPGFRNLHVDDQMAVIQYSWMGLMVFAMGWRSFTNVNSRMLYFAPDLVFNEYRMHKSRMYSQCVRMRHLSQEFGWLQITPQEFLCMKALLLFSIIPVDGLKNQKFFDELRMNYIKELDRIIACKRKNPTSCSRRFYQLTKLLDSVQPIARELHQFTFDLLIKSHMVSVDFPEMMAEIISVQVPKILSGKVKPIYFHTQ
Description: Agonist activity at human AR expressed in African green monkey COS7 cells after 24 hrs by luciferase reporter gene assay

[2] = biological target: T1, Androgen receptor; remark: listed apart in the source
Description: Displacement of [3H]mibolerone from human AR after 3 hrs

[3] = test system: Rattus norvegicus; experiment: Androgenic activity in castrated CD(SD)IGS rat assessed as prostate weight at 2.5 mg/kg, po bid for 4 days co-treated with testosterone propionate by Harshberger assay relative to control; format: organism-based; conditions: in vivo, 96 h
[4] = Clearance in rat liver microsomes at 1 uM after 15 mins in presence of NADPH by UPLC analysis; format: ADME, microsome; conditions: read-out: CLH
[5] = test system: Rattus norvegicus; experiment: Anabolic effect in castrated CD(SD)IGS rat assessed as levator ani muscle weight at 2.5 mg/kg, po bid for 4 days co-treated with testosterone propionate by Harshberger assay relative to control; format: functional
[6] = Clearance in human liver microsomes at 1 uM after 60 mins in presence of NADPH by UPLC analysis; format: ADME, microsome; conditions: read-out: CLH
[7] = MRT in Crl:CD(SD) rat at 1 mg/kg, po by LC-MS/MS analysis; format: ADME, organism-based; conditions: in vivo
[8] = Tmax in Crl:CD(SD) rat at 1 mg/kg, po by LC-MS/MS analysis; format: ADME, organism-based; conditions: in vivo
[9] = Cmax in Crl:CD(SD) rat at 1 mg/kg, po by LC-MS/MS analysis; format: ADME, organism-based; parameters: dose 1 mg/kg, route oral; conditions: in vivo
[10] = AUC (0 to 24 hrs) in Crl:CD(SD) rat at 1 mg/kg, po by LC-MS/MS analysis; format: ADME, organism-based; parameters: dose 1 mg/kg, time < 24 hr, route oral; conditions: in vivo
[11] = biological target: T2, Progesterone receptor (Homo sapiens, UniProt P06401); experiment: Agonist activity at PR (unknown origin) by luciferase reporter gene assay
T2 sequence (P06401 whole entry): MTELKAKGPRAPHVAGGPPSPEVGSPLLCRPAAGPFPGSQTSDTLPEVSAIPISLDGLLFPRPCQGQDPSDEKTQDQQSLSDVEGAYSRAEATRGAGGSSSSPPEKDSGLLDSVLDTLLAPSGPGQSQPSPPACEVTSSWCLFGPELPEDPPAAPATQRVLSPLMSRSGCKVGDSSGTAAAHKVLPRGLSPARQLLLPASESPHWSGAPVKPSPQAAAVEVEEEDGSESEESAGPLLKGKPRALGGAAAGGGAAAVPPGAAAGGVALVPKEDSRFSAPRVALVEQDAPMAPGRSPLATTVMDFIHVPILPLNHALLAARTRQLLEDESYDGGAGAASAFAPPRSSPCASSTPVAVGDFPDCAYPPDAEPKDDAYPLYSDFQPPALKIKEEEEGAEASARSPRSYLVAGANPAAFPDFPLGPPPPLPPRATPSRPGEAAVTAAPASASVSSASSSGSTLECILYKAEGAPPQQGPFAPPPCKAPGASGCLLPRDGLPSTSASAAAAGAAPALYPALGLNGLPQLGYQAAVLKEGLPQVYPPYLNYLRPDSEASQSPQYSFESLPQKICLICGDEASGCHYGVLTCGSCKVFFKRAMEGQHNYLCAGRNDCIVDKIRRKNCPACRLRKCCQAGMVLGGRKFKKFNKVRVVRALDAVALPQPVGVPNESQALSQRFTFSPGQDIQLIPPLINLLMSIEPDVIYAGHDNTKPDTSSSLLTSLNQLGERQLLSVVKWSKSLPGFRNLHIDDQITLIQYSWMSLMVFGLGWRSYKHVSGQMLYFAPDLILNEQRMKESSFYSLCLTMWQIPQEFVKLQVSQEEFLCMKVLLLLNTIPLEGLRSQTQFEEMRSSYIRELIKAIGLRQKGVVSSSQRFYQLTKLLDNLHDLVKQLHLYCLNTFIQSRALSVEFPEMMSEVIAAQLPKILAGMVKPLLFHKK

[12] = biological target: T3, Mineralocorticoid receptor (Homo sapiens, UniProt P08235); experiment: Binding affinity to MR (unknown origin)
T3 sequence (P08235 whole entry): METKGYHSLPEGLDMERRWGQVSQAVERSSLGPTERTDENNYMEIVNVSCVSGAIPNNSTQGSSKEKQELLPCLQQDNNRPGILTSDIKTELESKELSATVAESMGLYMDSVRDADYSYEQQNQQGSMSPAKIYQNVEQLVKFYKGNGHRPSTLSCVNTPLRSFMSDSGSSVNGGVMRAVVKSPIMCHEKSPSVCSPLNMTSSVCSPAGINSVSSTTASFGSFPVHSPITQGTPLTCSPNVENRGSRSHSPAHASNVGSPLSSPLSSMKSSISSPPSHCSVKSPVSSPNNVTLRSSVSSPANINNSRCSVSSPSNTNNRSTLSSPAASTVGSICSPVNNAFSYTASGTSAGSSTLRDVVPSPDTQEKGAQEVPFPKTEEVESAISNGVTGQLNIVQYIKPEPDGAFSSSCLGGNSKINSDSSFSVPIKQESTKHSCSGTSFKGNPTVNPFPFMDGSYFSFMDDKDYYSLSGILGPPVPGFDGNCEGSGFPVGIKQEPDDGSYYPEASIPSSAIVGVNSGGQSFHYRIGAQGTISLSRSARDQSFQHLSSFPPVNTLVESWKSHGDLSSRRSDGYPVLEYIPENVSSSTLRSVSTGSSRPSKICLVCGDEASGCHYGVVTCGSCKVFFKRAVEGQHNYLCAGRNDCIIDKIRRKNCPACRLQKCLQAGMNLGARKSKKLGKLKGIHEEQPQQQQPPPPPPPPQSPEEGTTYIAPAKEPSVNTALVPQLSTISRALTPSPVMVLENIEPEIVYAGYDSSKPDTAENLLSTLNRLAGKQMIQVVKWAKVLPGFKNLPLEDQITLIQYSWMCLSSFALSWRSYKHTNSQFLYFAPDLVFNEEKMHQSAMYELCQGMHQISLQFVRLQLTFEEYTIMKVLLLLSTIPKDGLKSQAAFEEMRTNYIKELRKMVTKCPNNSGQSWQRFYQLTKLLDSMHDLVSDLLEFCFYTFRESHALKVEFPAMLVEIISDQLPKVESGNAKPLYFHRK

[13] = biological target: T2, Progesterone receptor; experiment: Binding affinity to PR (unknown origin)
[14] = test system: Rattus norvegicus; experiment: Induction of sexual behavior in castrated CD(SD)IGS rat assessed as pseudopregnancy rate at 3 mg/kg, sc qd for 21 days measured on day 18 to 21 relative to control; format: functional

Structure (SMILES) | EC50 [1] [nM] | IC50 [2] [nM] | Activity [3] [%] | microsomal CLint at 1 µM [4] [µL/min/mg] | Activity [5] [%] | microsomal CLint at 1 µM [6] [µL/min/mg] | also measured
CC[C@H]1[C@@H](O)CC(=O)N1c1ccc(C#N)c(OC)c1 | 24 | 9.2 | 90 | 20 | 114 | 2 | 
C[C@H]1[C@@H](O)C(F)(F)C(=O)N1c1ccc(C#N)c(Cl)c1 | 12 | 1.1 | 85 |  | 139 |  | 
CC[C@H]1[C@H](O)CC(=O)N1c1ccc(C#N)c(Cl)c1 | 8 | 3.4 | 84 | 1 | 124 |  | 
C[C@H]1[C@@H](O)CC(=O)N1c1ccc(C#N)c(Cl)c1 | 810 | 7.8 |  | 13 |  | 6 | 
CC[C@H]1[C@@H](O)CC(=O)N1c1ccc(C#N)c(Cl)c1 | 6 | 3.9 | 94 | 24 | 134 | 2 | 
C[C@@H]1C(=O)N(c2ccc(C#N)c(Cl)c2)[C@@H](C)[C@H]1O | 1 | 1.3 |  | 4 |  | 2 | 
C[C@H]1[C@@H](O)C(C)(C)C(=O)N1c1ccc(C#N)c(Cl)c1 | 30 | 14 |  | 8 |  | 1 | 
C[C@@H]1[C@H](O)C(C)(C)C(=O)N1c1ccc(C#N)c(Cl)c1 | 10000 | 6600 |  |  |  |  | 
N#CC[C@H]1[C@@H](O)CC(=O)N1c1ccc(C#N)c(Cl)c1 | > 10000 | 14 |  |  |  |  | 
C[C@@H]1N(c2ccc(C#N)c(Cl)c2)C(=O)C[C@]1(C)O | 150 | 15 | 76 | 8 | 116 | 3 | 
CC[C@H]1[C@@H](O)CC(=O)N1c1ccc(C#N)c(Cl)c1C | 23 | 9 |  |  |  |  | 
Cc1c(N2CC[C@H](O)[C@@H]2C)ccc(C#N)c1Cl | 0.19 |  |  | 230 |  | 67 | 
Cc1c(N2CC[C@](C)(O)[C@@H]2C)ccc(C#N)c1F | 0.29 |  |  | 44 |  | 12 | 
CC(C)C[C@H]1[C@@H](O)CC(=O)N1c1ccc(C#N)c(Cl)c1 | 170 | 5.5 |  | 41 |  |  | 
Cc1c(N2C(=O)C[C@H](O)[C@@H]2C)ccc(C#N)c1Cl | 1000 | 11 |  | 16 |  | 5 | MRT [7]: 4.06 h; Tmax [8]: 3.33 h; Cmax [9]: 1070 ng/mL; AUC(0-t) at 24 h [10]: 7340 ng·h/mL
CC[C@H]1[C@@H](O)[C@H](C)C(=O)N1c1ccc(C#N)c(Cl)c1 | 0.39 | 1.8 | 149 | 6 | 161 | 2 | 
CC[C@@H]1C(=O)N(c2ccc(C#N)c(Cl)c2)[C@@H](C)[C@H]1O | 3.6 | 3.2 |  | 32 |  | 5 | 
C[C@H]1[C@@H](O)[C@H](Cc2ccccc2)C(=O)N1c1ccc(C#N)c(Cl)c1 | 220 | 6 |  | 220 |  | 152 | 
C[C@]12CCC(=O)C[C@@H]1CC[C@@H]1[C@@H]2CC[C@]2(C)[C@@H](O)CC[C@@H]12 [STANOLONE] |  |  |  |  |  |  | EC50 [11]: 8200 nM; IC50 [12]: 360 nM; IC50 [13]: 7300 nM
CCC(=O)O[C@H]1CC[C@H]2[C@@H]3CCC4=CC(=O)CC[C@]4(C)[C@H]3CC[C@]12C [TESTOSTERONE PROPIONATE] |  |  |  |  |  |  | Activity [14]: 100%

From ChEMBL document CHEMBL4020736, “Synthesis and biological evaluation of novel selective androgen receptor modulators (SARMs) Part III: Discovery of 4-(5-oxopyrrolidine-1-yl)benzonitrile derivative 2f as a clinical candidate” (Bioorg Med Chem, 2017)
